Assay results: ChEMBL document CHEMBL1153461, “Inhibitory effects of flavonoids isolated from Fragaria ananassa Duch on IgE-mediated degranulation in rat basophilic leukemia RBL-2H3” (Bioorg Med Chem, 2009)
Calls of active or inactive are those of the source. The calls are words filed in the database; no cut-off is given here.

Experiments:
[1] = tested on: Radical scavenging activity; assay: Antioxidant activity assessed as radical DPPH scavenging activity; type: functional
[2] = molecular target: Tyrosine-protein kinase SYK (Rattus norvegicus) (UniProt Q64725); assay: Inhibition of Syk phosphorylation in DNP-BSA-stimulated rat RBL2H3 cells by Western blotting; type: cell-based; details: RBL-2H3
Sequence of Tyrosine-protein kinase SYK (Rattus norvegicus) (Q64725 whole entry, looked up): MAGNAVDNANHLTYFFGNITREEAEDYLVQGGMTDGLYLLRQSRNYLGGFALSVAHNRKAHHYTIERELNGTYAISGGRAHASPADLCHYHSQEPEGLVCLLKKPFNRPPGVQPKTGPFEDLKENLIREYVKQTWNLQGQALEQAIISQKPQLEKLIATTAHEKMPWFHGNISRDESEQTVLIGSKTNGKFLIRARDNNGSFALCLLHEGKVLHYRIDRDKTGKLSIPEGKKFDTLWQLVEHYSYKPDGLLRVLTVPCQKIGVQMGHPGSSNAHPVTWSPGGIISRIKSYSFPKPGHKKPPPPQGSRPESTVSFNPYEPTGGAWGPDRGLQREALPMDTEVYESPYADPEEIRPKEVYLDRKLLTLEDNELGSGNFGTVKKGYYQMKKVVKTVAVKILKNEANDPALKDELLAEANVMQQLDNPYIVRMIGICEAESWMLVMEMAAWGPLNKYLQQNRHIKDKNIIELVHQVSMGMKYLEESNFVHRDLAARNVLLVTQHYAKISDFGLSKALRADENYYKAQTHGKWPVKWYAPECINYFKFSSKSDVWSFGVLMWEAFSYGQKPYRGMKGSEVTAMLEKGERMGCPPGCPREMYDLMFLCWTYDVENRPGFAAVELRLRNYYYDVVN

[3] = tested on: RBL-2H3; assay: Inhibition of ERK phosphorylation in DNP-BSA-stimulated rat RBL2H3 cells by Western blotting; type: cell-based
[4] = tested on: RBL-2H3; assay: Inhibition of JNK phosphorylation in DNP-BSA-stimulated rat RBL2H3 cells by Western blotting; type: cell-based
[5] = tested on: RBL-2H3; assay: Inhibition of p38 phosphorylation in DNP-BSA-stimulated rat RBL2H3 cells by Western blotting; type: cell-based
[6] = tested on: RBL-2H3; assay: Inhibition of ERK in DNP-BSA-stimulated rat RBL2H3 cells assessed as reduction in cPLA2 phosphorylation by Western blotting; type: cell-based
[7] = tested on: RBL-2H3; assay: Antiallergic activity in IgE-sensitized rat RBL2H3 cells assessed as inhibition of A-23187-stimulated beta hexaminidase release relative to control; type: functional, cell-based
[8] = tested on: RBL-2H3; assay: Antiallergic activity in IgE-sensitized DNP-BSA-stimulated rat RBL2H3 cells assessed as decrease in intracellular Ca2+ level by fluorimetry; type: functional, cell-based
[9] = tested on: RBL-2H3; assay: Antioxidant activity in IgE-sensitized rat RBL2H3 cells assessed as reduction in DNP-BSA-mediated intracellular ROS production at 50 uM after 30 mins by fluorimetry; type: functional, cell-based
[10] = molecular target: T1, 1-phosphatidylinositol 4,5-bisphosphate phosphodiesterase gamma-2 (Rattus norvegicus) (UniProt P24135); assay: Inhibition of PLCgamma2 phosphorylation in DNP-BSA-stimulated rat RBL2H3 cells by Western blotting; type: cell-based; details: RBL-2H3
T1 sequence (whole entry): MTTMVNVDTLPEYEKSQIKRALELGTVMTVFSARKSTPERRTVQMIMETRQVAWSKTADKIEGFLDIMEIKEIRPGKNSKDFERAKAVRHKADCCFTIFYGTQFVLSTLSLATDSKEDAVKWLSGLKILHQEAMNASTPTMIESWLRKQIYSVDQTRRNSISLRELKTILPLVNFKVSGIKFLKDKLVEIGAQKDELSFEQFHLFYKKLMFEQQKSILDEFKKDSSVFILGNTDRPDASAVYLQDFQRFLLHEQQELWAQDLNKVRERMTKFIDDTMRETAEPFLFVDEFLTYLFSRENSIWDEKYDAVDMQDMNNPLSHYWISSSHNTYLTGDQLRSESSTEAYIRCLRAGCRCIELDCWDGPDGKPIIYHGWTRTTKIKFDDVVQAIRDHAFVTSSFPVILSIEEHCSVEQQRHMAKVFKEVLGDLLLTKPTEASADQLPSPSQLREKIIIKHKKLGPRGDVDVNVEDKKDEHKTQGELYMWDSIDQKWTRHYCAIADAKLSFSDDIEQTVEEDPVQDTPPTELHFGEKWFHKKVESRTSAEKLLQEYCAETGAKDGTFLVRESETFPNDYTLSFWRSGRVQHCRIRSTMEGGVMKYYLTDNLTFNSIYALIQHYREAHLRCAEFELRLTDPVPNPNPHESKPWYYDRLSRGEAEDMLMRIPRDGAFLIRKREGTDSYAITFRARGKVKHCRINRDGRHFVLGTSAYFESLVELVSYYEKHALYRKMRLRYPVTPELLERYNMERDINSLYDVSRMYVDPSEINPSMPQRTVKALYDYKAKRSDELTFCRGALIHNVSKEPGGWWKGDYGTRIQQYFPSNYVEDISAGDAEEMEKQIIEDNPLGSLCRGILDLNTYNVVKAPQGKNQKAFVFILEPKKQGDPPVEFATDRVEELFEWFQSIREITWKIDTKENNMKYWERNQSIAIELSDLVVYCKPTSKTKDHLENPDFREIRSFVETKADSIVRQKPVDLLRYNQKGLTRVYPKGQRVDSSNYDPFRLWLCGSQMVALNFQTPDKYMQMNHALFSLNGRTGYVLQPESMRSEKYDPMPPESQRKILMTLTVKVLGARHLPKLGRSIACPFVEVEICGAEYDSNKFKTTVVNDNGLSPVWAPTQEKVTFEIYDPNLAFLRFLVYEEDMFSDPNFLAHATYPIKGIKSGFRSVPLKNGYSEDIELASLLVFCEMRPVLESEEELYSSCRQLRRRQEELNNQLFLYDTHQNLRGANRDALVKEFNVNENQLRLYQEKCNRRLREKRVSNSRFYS

[11] = molecular target: T2, 1-phosphatidylinositol 4,5-bisphosphate phosphodiesterase gamma-1 (Rattus norvegicus) (UniProt P10686); assay: Inhibition of PLCgamma1 phosphorylation in DNP-BSA-stimulated rat RBL2H3 cells by Western blotting; type: cell-based; details: RBL-2H3
T2 sequence (whole entry): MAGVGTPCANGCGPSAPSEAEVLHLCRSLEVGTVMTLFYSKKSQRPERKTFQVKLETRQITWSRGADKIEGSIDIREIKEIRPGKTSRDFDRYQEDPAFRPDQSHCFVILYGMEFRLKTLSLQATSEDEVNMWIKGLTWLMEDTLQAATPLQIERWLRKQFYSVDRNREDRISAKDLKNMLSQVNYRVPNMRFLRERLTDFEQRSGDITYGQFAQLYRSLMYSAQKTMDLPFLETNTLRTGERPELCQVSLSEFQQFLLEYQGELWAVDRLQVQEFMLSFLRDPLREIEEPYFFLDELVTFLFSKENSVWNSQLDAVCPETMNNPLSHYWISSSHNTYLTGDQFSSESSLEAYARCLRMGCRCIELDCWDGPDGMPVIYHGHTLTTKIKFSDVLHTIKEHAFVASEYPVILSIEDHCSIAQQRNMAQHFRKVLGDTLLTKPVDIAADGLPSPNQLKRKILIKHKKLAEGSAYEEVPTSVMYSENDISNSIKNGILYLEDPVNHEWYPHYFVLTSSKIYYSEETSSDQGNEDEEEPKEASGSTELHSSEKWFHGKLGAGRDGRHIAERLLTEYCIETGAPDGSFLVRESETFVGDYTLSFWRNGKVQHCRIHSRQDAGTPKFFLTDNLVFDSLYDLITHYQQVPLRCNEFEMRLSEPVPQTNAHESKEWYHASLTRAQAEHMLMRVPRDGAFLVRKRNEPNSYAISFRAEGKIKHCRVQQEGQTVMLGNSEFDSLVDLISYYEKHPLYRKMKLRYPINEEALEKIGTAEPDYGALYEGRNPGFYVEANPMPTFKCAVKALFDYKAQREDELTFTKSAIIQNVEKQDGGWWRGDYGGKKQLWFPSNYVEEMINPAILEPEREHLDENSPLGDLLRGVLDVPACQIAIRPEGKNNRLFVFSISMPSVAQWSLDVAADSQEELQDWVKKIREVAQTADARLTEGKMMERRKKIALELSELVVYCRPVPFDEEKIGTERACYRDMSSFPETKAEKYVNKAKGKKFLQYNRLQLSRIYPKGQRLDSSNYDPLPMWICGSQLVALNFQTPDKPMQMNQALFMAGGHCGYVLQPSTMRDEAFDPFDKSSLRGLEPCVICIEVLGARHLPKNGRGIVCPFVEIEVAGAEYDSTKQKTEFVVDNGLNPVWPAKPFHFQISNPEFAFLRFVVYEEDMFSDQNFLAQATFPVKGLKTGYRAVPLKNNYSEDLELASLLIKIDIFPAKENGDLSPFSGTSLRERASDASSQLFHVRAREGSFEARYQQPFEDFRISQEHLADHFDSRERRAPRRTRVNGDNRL

[12] = tested on: RBL-2H3; assay: Antiallergic activity in IgE-sensitized rat RBL2H3 cells assessed as inhibition of DNP-BSA-stimulated beta hexaminidase release relative to control; type: functional, cell-based

| Compound | ED50 [1] [µM] | Activity [2] | Activity [3] | Activity [4] | Activity [5] | Activity [6] | Activity [7] | Activity [8] | Activity [9] | Activity [10] | Activity [11] | inhibition [12] |
| --- | --- | --- | --- | --- | --- | --- | --- | --- | --- | --- | --- | --- |
| O=C(/C=C/c1ccc(O)cc1)OC[C@H]1O[C@@H](Oc2c(-c3ccc(O)cc3)oc3cc(O)cc(O)c3c2=O)[C@H](O)[C@@H](O)[C@@H]1O | < 100 | inactive | Active | Active | Active | Active | Active | Active | Active | inactive | inactive | Active |
| O=C1O[C@H]([C@@H](O)CO)C(O)=C1O | 18 | – | – | – | – | – | – | – | – | – | – | – |
| O=c1cc(-c2ccccc2)oc2cc(O)cc(O)c12 | < 100 | inactive | inactive | inactive | inactive | – | Active | Active | – | inactive | inactive | Active |
| O=c1c(O)c(-c2ccc(O)cc2)oc2cc(O)cc(O)c12 | < 100 | Active | Active | Active | Active | Active | Active | Active | – | Active | Active | Active |
| VITAMIN E | 78 | – | – | – | – | – | – | – | – | – | – | – |
| O=C(/C=C/c1ccccc1)Oc1cc(O)c2c(=O)cc(-c3ccccc3)oc2c1 | < 100 | inactive | Active | Active | Active | Active | Active | Active | Active | inactive | inactive | Active |
| O=C(O[C@@H]1Cc2c(O)cc(O)cc2O[C@@H]1c1cc(O)c(O)c(O)c1)c1cc(O)c(O)c(O)c1 | 7 | inactive | – | – | – | – | – | – | – | inactive | inactive | – |
